These results are taken from ChEMBL document CHEMBL3259744, “Synthesis and biological evaluation of cinnamido linked benzophenone hybrids as tubulin polymerization inhibitors and apoptosis inducing agents” (Bioorg Med Chem Lett, 2014).

Structures are written as SMILES.

What all share (type): functional, cell-based
One assay relates to HeLa. Kind of assay: Cytotoxicity against human HeLa cells after 72 hrs by MTT assay. In general terms: Tetrazolium dyes change colour on reduction, which living cells bring about.
Assay [1] in a line: Cytotoxicity against human ME180 cells after 72 hrs by MTT assay. Particulars: ME-180, 72 h.
The subject of another assay is DU-145. In words: Cytotoxicity against human DU145 cells after 72 hrs by MTT assay. Particulars: DU-145, 72 h.
For the next assay, the system named is PC-3. In words: Cytotoxicity against human PC3 cells after 72 hrs by MTT assay. Particulars: PC-3, 72 h.
The next assay relates to COLO 205. Kind of assay: Cytotoxicity against human COLO205 cells after 72 hrs by MTT assay. Conditions: COLO 205, 72 h.
The test system of another assay is HT-29. In words: Cytotoxicity against human HT-29 cells after 72 hrs by MTT assay. Particulars: HT-29, 72 h.
The test system of a further assay is B16. Kind of assay: Cytotoxicity against mouse B16 cells after 72 hrs by MTT assay. Particulars: B16, 72 h.

As to `COc1ccc(C(=O)c2cc(OC)c(OC)c(OC)c2)cc1NC(=O)/C=C/c1cc(OC)c(OC)c(OC)c1`, the IC50 (commonly the point on the concentration scale where inhibition reaches its midpoint) in the assay on HeLa was found to be 1.5 µM; in assay [1], 2.1 µM; in the assay on DU-145 it was 6.3 µM; with PC-3 it was 3.9 µM; in the assay on COLO 205, 5.2 µM; in the assay with HT-29, 3.1 µM. Besides, in the assay with B16, the IC50 was determined as 1.2 µM.

Take `COc1cccc(/C=C/C(=O)Nc2cc(C(=O)c3cc(OC)c(OC)c(OC)c3)cc(OC)c2OC)c1`: the concentration for half-maximal inhibition (IC50) is 6.9 µM in the assay with HeLa; 8.6 µM in assay [1]; 12.5 µM with DU-145; 13.3 µM in the assay on PC-3; 10.7 µM with COLO 205; 8.7 µM with HT-29. This compound came in with an IC50 with B16 of 6.7 µM.

Turning to `COc1ccc(/C=C/C(=O)Nc2cc(C(=O)c3cc(OC)c(OC)c(OC)c3)ccc2OC)cc1`, the IC50 in the assay on HeLa amounted to 10.7 µM; in assay [1] it was 11.8 µM; with DU-145, 12.8 µM; in the assay with PC-3, 11.1 µM; in the assay with COLO 205, 10.9 µM; in the assay with HT-29, 5.01 µM. Also, the IC50 in the assay with B16 stood at 8.7 µM.

For the compound `COc1cc(C(=O)c2cc(OC)c(OC)c(OC)c2)cc(NC(=O)/C=C/c2ccc(F)cc2)c1OC`, the half-inhibitory concentration (IC50) came out at 0.9 µM in the assay with HeLa; 1 µM in assay [1]; 6.7 µM with DU-145; 4.1 µM with PC-3; 3.1 µM in the assay with COLO 205; 1.8 µM with HT-29. The same compound came in with a concentration for half-maximal inhibition (IC50) in the assay on B16 of 0.9 µM.

On to `COc1ccc(C(=O)c2cc(OC)c(OC)c(OC)c2)cc1NC(=O)/C=C/c1ccc(F)c(F)c1`, for which the IC50 with HeLa came out at 8.1 µM; in assay [1], 8.9 µM; in the assay with DU-145 it was 10.2 µM; with PC-3, 8.3 µM; in the assay on COLO 205, 6.02 µM; with HT-29 it was 4.2 µM. Moreover, in the assay with B16, half-maximal inhibition (IC50) was put at 6.5 µM.

Turning to `COc1cccc(/C=C/C(=O)Nc2cc(OC)c(OC)c(OC)c2)c1`, the IC50 in the assay with HeLa is 12.3 µM; in assay [1], 17.3 µM; with DU-145, 3.2 µM; in the assay with PC-3 it was 2.1 µM; in the assay with COLO 205, 4.2 µM; in the assay with HT-29, 2.4 µM. In the assay on B16, this compound returned a 50% inhibitory concentration (IC50) of 8.5 µM.

Regarding `COc1ccc(/C=C/C(=O)Nc2cc(C(=O)c3cc(OC)c(OC)c(OC)c3)cc(OC)c2OC)cc1OC`, the IC50 with HeLa was found to be 2.7 µM; in assay [1], 6.7 µM; in the assay on DU-145, 7.8 µM; with PC-3, 5.4 µM; in the assay on COLO 205 it was 5.7 µM; in the assay on HT-29 it was 2.3 µM. In the assay on B16, this compound had a 50% inhibitory concentration (IC50) of 1.3 µM.

Turning to `COc1cccc(/C=C/C(=O)Nc2cc(C(=O)c3cc(OC)c(OC)c(OC)c3)ccc2OC)c1`, the IC50 worked out at 3.1 µM with HeLa; 4.3 µM in assay [1]; 6.2 µM in the assay with DU-145; 4.7 µM in the assay with PC-3; 5.1 µM with COLO 205; 1.9 µM in the assay on HT-29. For the same compound, in the assay on B16, it took 3.1 µM to reach half-maximal inhibition (IC50).

Turning to `COc1cc(C(=O)c2cc(OC)c(OC)c(OC)c2)cc(NC(=O)/C=C/c2cc(OC)c(OC)c(OC)c2)c1OC`, the IC50 in the assay on HeLa stood at 2.5 µM; in assay [1], 3.9 µM; in the assay on DU-145 it was 6.6 µM; in the assay with PC-3 it was 4.8 µM; in the assay with COLO 205, 5.3 µM; in the assay on HT-29 it was 3.1 µM. Further, the concentration for half-maximal inhibition (IC50) in the assay on B16 was found to be 2.5 µM.

For the compound `COc1ccc(C(=O)c2cc(OC)c(OC)c(OC)c2)cc1NC(=O)/C=C/c1ccc(OC)c(OC)c1`, the half-maximal inhibitory concentration (IC50) was 7.8 µM in the assay on HeLa; 8.9 µM in assay [1]; 10.2 µM in the assay with DU-145; 7.5 µM in the assay with PC-3; 8.2 µM in the assay on COLO 205; 2.5 µM in the assay on HT-29. For the same compound, the IC50 in the assay with B16 came to 6.3 µM.

Turning to `COc1ccc(C(=O)c2cc(OC)c(OC)c(OC)c2)cc1NC(=O)/C=C/c1ccc(N)cc1`, the IC50 in the assay with HeLa is 14.7 µM; in assay [1] it was 16 µM; in the assay on DU-145, 13.5 µM; in the assay with PC-3 it was 15.9 µM; in the assay on COLO 205, 10.3 µM; in the assay with HT-29, 5.6 µM. Moreover, the IC50 with B16 was determined as 7.9 µM.

Take `COc1cc(C(=O)c2cc(OC)c(OC)c(OC)c2)cc(NC(=O)/C=C/c2cc(F)c(F)c(F)c2)c1OC`: the IC50 came out at 5 µM in the assay with HeLa; 7.1 µM in assay [1]; 7.9 µM in the assay with DU-145; 7.4 µM in the assay with PC-3; 4.3 µM with COLO 205; 3.3 µM with HT-29. Moreover, 5.2 µM corresponded to half-maximal inhibition in the assay on B16 (IC50).

Turning to `COc1ccc(/C=C/C(=O)Nc2cc(C(=O)c3cc(OC)c(OC)c(OC)c3)cc(OC)c2OC)cc1N`, the IC50 in the assay on HeLa was 15.8 µM; in assay [1], 13.9 µM; with DU-145, 12.7 µM; in the assay on PC-3, 11.1 µM; in the assay on COLO 205 it was 10.1 µM; in the assay on HT-29 it was 7.7 µM. This compound yielded a concentration for half-maximal inhibition (IC50) in the assay with B16 of 12.7 µM.

As to `COc1cc(C(=O)c2cc(OC)c(OC)c(OC)c2)cc(N)c1OC`, the 50% inhibitory concentration (IC50) worked out at 13.5 µM in the assay with HeLa; 12.2 µM in assay [1]; 10 µM with DU-145; 7.4 µM in the assay with PC-3; 4.4 µM in the assay on COLO 205; 3.8 µM in the assay on HT-29. For the same compound, in the assay with B16, the half-maximal inhibitory concentration (IC50) came to 12.5 µM.

Turning to `COc1ccc(C(=O)c2cc(OC)c(OC)c(OC)c2)cc1NC(=O)/C=C/c1cccc(OC(F)(F)F)c1`, the IC50 came out at 7.9 µM in the assay on HeLa; 9.2 µM in assay [1]; 10.2 µM in the assay with DU-145; 7.7 µM in the assay with PC-3; 7.9 µM in the assay on COLO 205; 5.2 µM with HT-29. The compound further had an IC50 in the assay on B16 of 6.3 µM.

Regarding `C#CCOc1cccc(/C=C/C(=O)Nc2cc(C(=O)c3cc(OC)c(OC)c(OC)c3)ccc2OC)c1`, the half-maximal inhibitory concentration (IC50) in the assay with HeLa was 14 µM; in assay [1], 15.3 µM; in the assay with DU-145 it was 15.8 µM; in the assay with PC-3 it was 13.1 µM; in the assay on COLO 205, 13.4 µM; in the assay with HT-29, 7.4 µM. The IC50 with B16 worked out at 12.2 µM.

As to `COc1cc(C(=O)c2cc(OC)c(OC)c(OC)c2)cc(NC(=O)/C=C/c2ccc(C(F)(F)F)cc2)c1OC`, the IC50 in the assay with HeLa amounted to 3 µM; in assay [1], 3.6 µM; in the assay with DU-145, 5.1 µM; in the assay with PC-3, 4.2 µM; in the assay on COLO 205 it was 2.5 µM; in the assay on HT-29 it was 1.9 µM. Moreover, in the assay on B16, the midpoint of inhibition, the IC50, lay at 3.3 µM.

For the compound `COc1ccc(/C=C/C(=O)Nc2cc(C(=O)c3cc(OC)c(OC)c(OC)c3)cc(OC)c2OC)cc1`, the IC50 was found to be 11.2 µM in the assay with HeLa; 12.5 µM in assay [1]; 10.4 µM with DU-145; 6.3 µM in the assay with PC-3; 4.8 µM in the assay with COLO 205; 3.8 µM in the assay on HT-29. The compound further gave a half-inhibitory concentration (IC50) with B16 of 9.4 µM.

As to `C#CCOc1cccc(/C=C/C(=O)Nc2cc(C(=O)c3cc(OC)c(OC)c(OC)c3)cc(OC)c2OC)c1`, the IC50 with HeLa is 7.3 µM; in assay [1], 8.4 µM; with DU-145 it was 13.5 µM; in the assay with PC-3, 10.1 µM; in the assay with COLO 205, 11.2 µM; in the assay on HT-29, 8.1 µM. Moreover, the IC50 in the assay with B16 came out at 5.1 µM.

Regarding `COc1ccc(C(=O)c2cc(OC)c(OC)c(OC)c2)cc1NC(=O)/C=C/c1ccc([N+](=O)[O-])cc1`, the IC50 with HeLa was determined as 8.5 µM; in assay [1] it was 9.3 µM; in the assay with DU-145 it was 15.6 µM; with PC-3, 10.4 µM; with COLO 205, 11.4 µM; with HT-29, 5.1 µM. Also, in the assay on B16, the half-inhibitory concentration (IC50) worked out at 6.4 µM.
